{
  "source": "patent US5284853A",
  "about": "“Angiotensin II receptor blocking 2,3,6 substituted quinazolinones” (American Cyanamid Company, priority 1993, dated 1994)",
  "key": {"[1]": {"system": "Angiotensin II (AII) vasopressor response", "assay": "AII Challenge: antagonism of the angiotensin II vasopressor response in conscious SHR", "type": "in vivo, Spontaneously hypertensive rats (Male okamoto-Aoki SHR)", "conditions": "15 mg/kg I.V.; for Average Change / Inhibition: n = 2; for Change / Control Before AII / Response After AII: per rat"}, "Angiotensin II Receptor": {"biological_target": "T1, Angiotensin II Receptor (Bos taurus, UniProt P25104)", "T1 construct": "The brownish tissue forming the adrenal cortex is scraped off and finely minced with scissors before homogenization; tissue local slaughter house (Maxwell-Cohen); host or cells: beef adrenal cortex, microsomal membranes (100,000×g pellet)", "T1 sequence (P25104 1-359)": "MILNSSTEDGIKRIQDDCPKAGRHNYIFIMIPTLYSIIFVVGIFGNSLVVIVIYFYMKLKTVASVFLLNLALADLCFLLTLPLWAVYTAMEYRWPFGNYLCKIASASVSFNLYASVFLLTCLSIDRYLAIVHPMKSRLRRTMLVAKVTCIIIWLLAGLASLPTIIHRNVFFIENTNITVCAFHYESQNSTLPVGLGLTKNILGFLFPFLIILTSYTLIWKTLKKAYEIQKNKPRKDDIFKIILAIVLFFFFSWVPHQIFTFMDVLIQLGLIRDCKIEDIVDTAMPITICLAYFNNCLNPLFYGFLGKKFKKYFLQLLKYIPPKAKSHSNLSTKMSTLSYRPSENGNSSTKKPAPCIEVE", "assay": "Receptor binding assay: competition of [^125 I](Sar^1,Ile^8)AngII binding to beef adrenal cortex microsomal membranes", "conditions": "60 min, room temperature, pH 7.4"}, "[2]": {"conditions": "AII 0.05 mcg/kg IV, 30 min post dose"}, "[3]": {"conditions": "AII 0.05 mcg/kg IV, 60 min post dose"}, "[4]": {"conditions": "AII 0.05 mcg/kg IV, 90 min post dose"}, "[5]": {"conditions": "AII 0.05 mcg/kg IV, 120 min post dose"}, "[6]": {"conditions": "AII 0.05 mcg/kg IV, 180 min post dose"}, "[7]": {"conditions": "AII 0.1 mcg/kg IV, 30 min post dose"}, "[8]": {"conditions": "AII 0.1 mcg/kg IV, 60 min post dose"}, "[9]": {"conditions": "AII 0.1 mcg/kg IV, 90 min post dose"}, "[10]": {"conditions": "AII 0.1 mcg/kg IV, 120 min post dose"}, "[11]": {"conditions": "AII 0.1 mcg/kg IV, 180 min post dose"}},
  "note": "“And” between values parts separate entries of the source, which are not always exact repeats. Equal values may be shown once.",
  "data": [
    {"compound": "CCCCc1nc2ccc(C3(C)CC(C(=O)OCC)=NO3)cc2c(=O)n1Cc1ccc(-c2ccccc2-c2nnn[nH]2)cc1", "note": "(stereo not drawn) [Example 30]", "values": [
      {"measurement": "Average Change", "setting": "[1]; [2]", "result": 10, "unit": "mmhg"},
      {"measurement": "Inhibition", "setting": "[1]; [2]", "result": 78, "unit": "%"},
      {"measurement": "Change", "setting": "[1]; [2]", "result": "15 mmhg and 5 mmhg"},
      {"measurement": "Control Before AII", "setting": "[1]; [2]", "result": "175 mmhg and 215 mmhg"},
      {"measurement": "Response After AII", "setting": "[1]; [2]", "result": "190 mmhg and 220 mmhg"},
      {"measurement": "Average Change", "setting": "[1]; [3]", "result": 9, "unit": "mmhg"},
      {"measurement": "Inhibition", "setting": "[1]; [3]", "result": 80, "unit": "%"},
      {"measurement": "Change", "setting": "[1]; [3]", "result": "0 mmhg and 18 mmhg"},
      {"measurement": "Control Before AII", "setting": "[1]; [3]", "result": "190 mmhg and 207 mmhg"},
      {"measurement": "Response After AII", "setting": "[1]; [3]", "result": "190 mmhg and 225 mmhg"},
      {"measurement": "Average Change", "setting": "[1]; [4]", "result": 20, "unit": "mmhg"},
      {"measurement": "Inhibition", "setting": "[1]; [4]", "result": 57, "unit": "%"},
      {"measurement": "Change", "setting": "[1]; [4]", "result": 20, "unit": "mmhg"},
      {"measurement": "Control Before AII", "setting": "[1]; [4]", "result": "170 mmhg and 210 mmhg"},
      {"measurement": "Response After AII", "setting": "[1]; [4]", "result": "190 mmhg and 230 mmhg"},
      {"measurement": "Average Change", "setting": "[1]; [5]", "result": 35, "unit": "mmhg"},
      {"measurement": "Inhibition", "setting": "[1]; [5]", "result": 24, "unit": "%"},
      {"measurement": "Change", "setting": "[1]; [5]", "result": "40 mmhg and 30 mmhg"},
      {"measurement": "Control Before AII", "setting": "[1]; [5]", "result": "165 mmhg and 200 mmhg"},
      {"measurement": "Response After AII", "setting": "[1]; [5]", "result": "205 mmhg and 230 mmhg"},
      {"measurement": "Average Change", "setting": "[1]; [6]", "result": 5, "unit": "mmhg"},
      {"measurement": "Inhibition", "setting": "[1]; [6]", "result": 89, "unit": "%"},
      {"measurement": "Change", "setting": "[1]; [6]", "result": 5, "unit": "mmhg"},
      {"measurement": "Control Before AII", "setting": "[1]; [6]", "result": "200 mmhg and 240 mmhg"},
      {"measurement": "Response After AII", "setting": "[1]; [6]", "result": "205 mmhg and 245 mmhg"},
      {"measurement": "Average Change", "setting": "[1]; [7]", "result": 17, "unit": "mmhg"},
      {"measurement": "Inhibition", "setting": "[1]; [7]", "result": 58, "unit": "%"},
      {"measurement": "Change", "setting": "[1]; [7]", "result": "14 mmhg and 20 mmhg"},
      {"measurement": "Control Before AII", "setting": "[1]; [7]", "result": "170 mmhg and 210 mmhg"},
      {"measurement": "Response After AII", "setting": "[1]; [7]", "result": "184 mmhg and 230 mmhg"},
      {"measurement": "Average Change", "setting": "[1]; [8]", "result": 20, "unit": "mmhg"},
      {"measurement": "Inhibition", "setting": "[1]; [8]", "result": 50, "unit": "%"},
      {"measurement": "Change", "setting": "[1]; [8]", "result": "15 mmhg and 25 mmhg"},
      {"measurement": "Control Before AII", "setting": "[1]; [8]", "result": "185 mmhg and 200 mmhg"},
      {"measurement": "Response After AII", "setting": "[1]; [8]", "result": "200 mmhg and 225 mmhg"},
      {"measurement": "Average Change", "setting": "[1]; [9]", "result": 32.5, "unit": "mmhg"},
      {"measurement": "Inhibition", "setting": "[1]; [9]", "result": 19, "unit": "%"},
      {"measurement": "Change", "setting": "[1]; [9]", "result": "35 mmhg and 30 mmhg"},
      {"measurement": "Control Before AII", "setting": "[1]; [9]", "result": "165 mmhg and 205 mmhg"},
      {"measurement": "Response After AII", "setting": "[1]; [9]", "result": "200 mmhg and 235 mmhg"},
      {"measurement": "Average Change", "setting": "[1]; [10]", "result": 29, "unit": "mmhg"},
      {"measurement": "Inhibition", "setting": "[1]; [10]", "result": 28, "unit": "%"},
      {"measurement": "Change", "setting": "[1]; [10]", "result": "25 mmhg and 33 mmhg"},
      {"measurement": "Control Before AII", "setting": "[1]; [10]", "result": "175 mmhg and 200 mmhg"},
      {"measurement": "Response After AII", "setting": "[1]; [10]", "result": "200 mmhg and 233 mmhg"},
      {"measurement": "Average Change", "setting": "[1]; [11]", "result": 15, "unit": "mmhg"},
      {"measurement": "Inhibition", "setting": "[1]; [11]", "result": 63, "unit": "%"},
      {"measurement": "Change", "setting": "[1]; [11]", "result": "25 mmhg and 5 mmhg"},
      {"measurement": "Control Before AII", "setting": "[1]; [11]", "result": "190 mmhg and 240 mmhg"},
      {"measurement": "Response After AII", "setting": "[1]; [11]", "result": "215 mmhg and 245 mmhg"},
      {"measurement": "IC50", "setting": "Angiotensin II Receptor", "result": 200, "unit": "nM"}
    ]}
  ]
}
